Assay results taken from article PMC10526199 (Biomolecules, 2023).

What was measured:
HDAC1 = details: cited from earlier work
HDAC2 = details: cited from earlier work
HDAC8 = details: cited from earlier work
HDAC3 = details: cited from earlier work
3xTg-AD mice [1] = assay: Behavior tests (NOR and battery) in 3xTg-AD mice; type: in vivo, mouse; details: 0.01 mg/kg oral gavage 5 days a week
Excerpt: (§1) Male and female triple-transgenic AD (3xTg-AD) mice from the NIH-supported Mutant Mouse Resource & Research Centers (MMRRC) were purchased through the Jackson Laboratory (Farmington, CT, USA). Mice were housed four animals per cage in an AAALAC-accredited animal facility at the University of Miami Miller School of Medicine. All experiments were approved by the University of Miami Miller School of Medicine Institutional Animal Care and Use Committee (IACUC).
(§2) Formulations were made fresh weekly and sonicated briefly to mix. Beginning at 4 months of age (prior to disease development), mice were treated 5 days a week for 9 months.
A series of behavior tests intended to test motor coordination, anxiety, spatial learning, and reference memory was performed as previously performed by our lab. Motor coordination was assessed at 11 months of age using rotarod. Anxiety was assessed by open field at 7 months and elevated O-maze at 11 months. […]
1. […] Motor coordination was assessed by the latency to fall on the very first trial between treatment groups. […]
3. […] Arm entries were recorded and percent of spontaneous alternations was calculated. […]
4. […] Distance traveled, velocity of movement within the arena, and time in center versus periphery were recorded and analyzed. Anxiety- related behavior is assessed by the duration spent in the center of the field versus the periphery. […]

3xTg-AD mice [2] = assay: Intraperitoneal glucose tolerance testing (GTT) in 3xTg-AD mice; type: in vivo, mouse; details: 10 months of age, 0.01 mg/kg oral gavage 5 days a week
Excerpt: as §1, §2
(§3) Mice underwent intraperitoneal (i.p.) glucose tolerance testing (GTT) at 10 months of age, and insulin tolerance testing (ITT) at 12 months of age. For both tests, mice were food fasted 6 h prior to testing, with access to water. For GTT, mice were injected with 1.5 g/kg body weight glucose diluted in saline. For ITT, mice were injected with 0.8 U/kg body weight insulin. For both tests, blood glucose was measured from a tail prick by a glucometer (Bayer; Leverkusen, Germany) at 0, 15, 30, 60, 90, and 120 min.

3xTg-AD mice [3] = assay: Insulin tolerance testing (ITT) in 3xTg-AD mice; type: in vivo, mouse; details: 12 months, 0.01 mg/kg oral gavage 5 days a week
Excerpt: as §1, §2, §3

[4] = test system: Human Aβ1–42, Aβ1–40, total tau, phosphorylated-tau Serine-396, phosphorylated-tau Threonine-181; assay: ELISA for tau and Aβ species in brain tissue of 3xTg-AD mice; type: in vivo, mouse
Excerpt: as §1, §2
(§4) At 13 months of age, mice were anaesthetized with isoflurane and euthanized via cardiac puncture. The brain was extracted and quickly dissected on ice, and snap-frozen in liquid nitrogen. The samples were stored at −80 °C until processed. For each mouse, brain regions from one hemisphere were used for RNA extraction and qPCR and sections from the other hemisphere were used for protein extraction and ELISAs.
Protein lysates were prepared by sonicating tissue in M-PER Mammalian Protein Extraction Reagent (Thermo Fisher Scientific; Waltham, MA, USA) supplemented with protease and phosphatase inhibitor (Thermo Fisher Scientific). Total protein was quantified using Pierce BCA Protein Assay Kit (Thermo Fisher Scientific). Human Aβ1–42, Aβ1–40, total tau, phosphorylated-tau Serine-396, and phosphorylated-tau Threonine-181 were measured in brain tissue by enzyme-linked immunosorbent assay (ELISA; Invitrogen, Thermo Fisher Scientific), and measured using the EnVision® multimode plate reader (Perkin Elmer; Waltham, MA, USA).

[5] = test system: differentially expressed genes; assay: NanoString nCounter Mouse Neuropathology Panel and Ingenuity Pathway Analysis, ERC RNA of 3xTg-AD mice; type: in vivo; details: for DEGs decreased compared to vehicle / DEGs increased compared to vehicle / significant differentially expressed genes (DEG) compared to vehicle: ERC, 0.01 mg/kg oral gavage 9 months; for significant differentially expressed genes (DEG) compared to vehicle: Q value < 0.01; for most pathways incl. neuroinflammation signaling and amyloid processing pathway, vs vehicle: Ingenuity Pathway Analysis
Excerpt: as §1, §2, §4
The NanoString Technologies nCounter® Mouse Neuropathology Panel was used to assess ERC RNA. This panel screens expression of 770 genes specific for neurodegeneration. We also included a custom 30-gene spike-in code set to include specific genes of interest. Assays were performed using the NanoString protocols, and data were normalized in nSolver® analysis software v 2.0.
Heatmaps were created with Morpheus Software (accessed on 20 February 2022; software.broadinstitute.org/Morpheus). Ingenuity Pathway Analysis (Qiagen) was used to run comparison analyses of differentially regulated pathways between male and female animals.

Adam10, Slc2a1, Slc2a3 = assay: RT-qPCR of AD- and glucose metabolism-related genes in brain of 3xTg-AD mice; type: in vivo, mouse; details: 0.01 mg/kg oral gavage 9 months
Excerpt: as §1, §2, §4
RNA was isolated from tissue using TRIzol® reagent (Life Technologies, Thermo Fisher Scientific) and a Qiagen RNeasy® Mini Kit (Qiagen; Hilden, Germany). RNA concentrations and quality were determined using NanoDrop 2000 UV-Vis Spectrophotometer (Thermo Fisher Scientific). cDNA was created using qScript cDNA Synthesis kit (Quantabio; Beverly, MA, USA). RT-qPCR was run using TaqMan 2-step RT-qPCR reagents (Thermo Fisher Scientific) on the QuantStudio Flex RT-qPCR system (Applied Biosystems, Thermo Fisher Scientific). Fold-change in gene expression relative to non-transduced controls were normalized. Results presented are based on fold-change using the 2^(−ΔΔCt) method.

HDAC10 = details: cited from earlier work
[6] = cited from earlier work
[7] = test system: histone H3K27 acetylation; details: 0.1 mg/kg, mouse model of immune thrombocytopenia; cited from earlier work
[8] = PFC, 0.01 mg/kg oral gavage 5 days a week for 9 months
[9] = hippocampus, females, 0.01 mg/kg oral gavage 5 days a week for 9 months
[10] = hippocampus, males, 0.01 mg/kg oral gavage 5 days a week for 9 months

CC(=O)Nc1ccc(C(=O)Nc2ccccc2N)cc1 [Tacedinaline]
IC50 (HDAC1): […] | IC50 (HDAC2): 900 nM | IC50 (HDAC3): 1200 nM | inhibition of HDAC8 (HDAC8): not reported to inhibit HDAC8

Nc1cc(F)ccc1NC(=O)c1ccc(CNC(=O)/C=C/c2cccnc2)cc1 [chidamide]
NOR: time exploring novel vs familiar object compared to vehicle (3xTg-AD mice [1]; 10-month-old males): longer time exploring the novel object | overall behavior data (anxiety, learning, memory) (3xTg-AD mice [1]; males and females): do not reach the appropriate effect size to distinguish any meaningful results | glucose tolerance vs vehicle (3xTg-AD mice [2]; females): trend towards improved glucose tolerance | glucose tolerance vs vehicle (3xTg-AD mice [2]; males): significant improvement in glucose tolerance | insulin tolerance vs vehicle (3xTg-AD mice [3]; females): No significant differences | insulin tolerance vs vehicle (3xTg-AD mice [3]; males): No significant differences | tau phosphorylated at serine 396 (S396) vs vehicle ([4]; PFC, females, 0.01 mg/kg oral gavage 5 days a week for 9 months): no significant difference | tau phosphorylated at serine 396 (S396) vs vehicle ([4]; PFC, males, 0.01 mg/kg oral gavage 5 days a week for 9 months): significantly greater | Aβ-40 levels, treated females compared to treated males [4, 8]: greater in chidamide-treated females compared to males | PFC Aβ-42 change with treatment [4, 8]: a corresponding decrease in PFC Aβ-42 was not observed | progression of AD-like pathology ([4]; chronic, low-dose 0.01 mg/kg, 3xTg-AD mouse): does not appear to significantly alter progression of AD-like pathology | tau phosphorylated at threonine 181 (T181) vs vehicle [4, 9]: trend for decreased levels | total tau levels vs vehicle [4, 9]: did not show a significant difference | tau phosphorylated at threonine 181 (T181) vs vehicle [4, 10]: trend for decreased levels | total tau levels vs vehicle [4, 10]: significantly lower levels of total tau | Aβ-42 levels, treated females compared to treated males ([4]; hippocampus, 0.01 mg/kg oral gavage 5 days a week for 9 months): significantly greater in the hippocampus of female- compared to male-treated mice | DEGs decreased compared to vehicle ([5]; females): 6 | DEGs increased compared to vehicle ([5]; females): 11 | significant differentially expressed genes (DEG) compared to vehicle ([5]; females): 17 | most pathways incl. neuroinflammation signaling and amyloid processing pathway, vs vehicle ([5]; females): downregulated | DEGs decreased compared to vehicle ([5]; males): 41 | DEGs increased compared to vehicle ([5]; males): 83 | significant differentially expressed genes (DEG) compared to vehicle ([5]; males): 124 | most pathways incl. neuroinflammation signaling and amyloid processing pathway, vs vehicle ([5]; males): upregulated | Adam10 expression vs vehicle (Adam10, Slc2a1, Slc2a3; PFC, females): significantly greater | Adam10 expression vs vehicle (Adam10, Slc2a1, Slc2a3; PFC, males): trend for increase | Adam10 expression vs vehicle (Adam10, Slc2a1, Slc2a3; hippocampus): no difference was observed | Slc2a1 (GLUT1) expression vs vehicle (Adam10, Slc2a1, Slc2a3; males, hippocampus): trend for an increase | Slc2a3 (GLUT3) expression vs vehicle (Adam10, Slc2a1, Slc2a3; males, hippocampus): significant increase | inhibition of HDAC1 (HDAC1): low nanomolar range | inhibition of HDAC2 (HDAC2): low nanomolar range | inhibition of HDAC3 (HDAC3): low nanomolar range | inhibition of class IIB HDAC10 (HDAC10): low nanomolar range | blood–brain barrier crossing [6]: crosses the blood–brain barrier | histone H3K27 acetylation [7]: modulation of histone H3K27 acetylation occurred at this low dose
